Measurements from patent US20250332326A1, “METHOD OF GENERATING 3D POROUS HYBRID PROTEIN NANOSCAFFOLD” (Rutgers, The State University of New Jersey, priority 2024, published 2025).

How the values were obtained:
[1] = test system: LPS-stimulated THP-1-derived macrophages; experiment: qRT-PCR of inflammatory genes in LPS-stimulated macrophages co-cultured with scaffolds; format: cell-based, human; details: Transwell system, 50, 100, 200 μg/mL BETi loading
Method: THP-1 monocytes were purchased from ATCC® and cultured using standard protocol provided by the vendor (10% FBS in 1640 RPMI basal media supplemented with […] beta-mercaptoethanol). Media was refreshed every other day. THP-1 monocytes were cultured at a density of 100,000 to 500,000 cells per mL. When they proliferate above the density, cells were centrifuged down for media change. To convert suspension culture of THP-1 monocytes into adherent macrophages, 200 ng/ml of phorbol myristate acetate (PMA) was added into the media then split into 24 well plates at designated density (100,000 per well). PMA was treated for 1-3 days then fresh growth media without PMA was added. To stimulate the macrophages, 1,000 ng/mL lipopolysaccharide (LPS, Sigma Aldrich) was included in the media for 4 hours. Macrophages were converted from THP-1 monocytes through PMA activation. Then different scaffold conditions, including chitosan nanoscaffold, 3D-PHP nanoscaffold, and control (PBS only), as well as 3D-PHP nanoscaffold loaded with low (50 μg), medium (100 μg) and high (200 μg) dosages of BETi (JQ-1 from Tocris) drugs were added into the macrophage cultured followed by the addition of 1 μg/mL LPS for stimulation of macrophages. […] Cells were lysed with Trizol®, and then the lysates were stored at −80° C. until ready for use. […]

[2] = test system: rat nucleotomy disc injury model; experiment: Rat nucleotomy disc injury model, histological and MRI analysis 6 WPI; format: in vivo
Method: Rats were anesthetized by injection of 2 mg/kg midazolam and 0.15 mg/kg medetomidine and butorphanol tartrate. After rats reached deep anesthesia, which was confirmed by tail pinching, posterior midline incision was performed at the Co6-7 level to expose the intervertebral disc. A no. 11 scalpel was used for the incision of posterior AF and the longitudinal cut was around 2 mm. […] After the nucleotomy, nanoscaffolds were pushed into the empty space using a micropipette tip. As controls, PBS was injected into the empty space after the nucleotomy. A heating pad was provided underneath the rats throughout the procedure and the rats were observed during recovery from the anesthesia.
MRI was performed on rats 6 WPI using a Bruker BioSpec (9.4 T) MRI scanner in order to investigate the regeneration of discs after the nucleotomy, which can be quantified by the signal intensities and water content through T2-weighted MRI. In the MRI study, time-to-repetition was set as 5,000 ms; time-toecho was set to 30 ms; and coronal axial planes were imaged for the rat discs. MRI index and signal intensities were used for the calculation of degree of damage of coccygeal disc tissues. Region of interest (ROI) was defined as the higher intensity area in the coronal plane and ROI was quantified using Fiji (Image J). MRI index was measured with blind tests by two independent observers.
At 6 WPI, animals were all sacrificed and disc tissues were harvested and fixed using 10% buffered formalin for one week. Decalcification was then performed using Rapid Cal Immuno™ (BBC biochemical) for another 2 weeks. Disc tissues were then paraffin-embedded and sectioned in the coronal directions with a Leica microtome. After dewaxing, rehydration, and permeabilization by methanol, H&E, immunohistofluorescent, and Safranin-O staining were performed on different sections. For H&E staining, tissue sections were stained in a solution with Mayer's Hematoxylin for 5 minutes then washed with water and counterstained in alcoholic solution of eosin for another minute without rinsing. […] For the Safranin-O staining, tissues were stained for 10 minutes by Weigert's iron hematoxylin solution followed by extensive washing with water. Then fast green solution was used for the second staining for 5 minutes followed by brief rinsing with 1% acetic acid solution and then stained with 0.1% Safranin-O solution. Afterwards, tissues were dehydrated and cleared using identical protocol as mentioned in the H&E staining. Safranin-O staining score was based on an 8-point scale previous used for IVD tissue analysis, and if no degenerative features were found a zero score was assigned. For the immunohistofluorescent and immunohistochemistry staining of inflammatory (e.g., MMP13 and IL1β), ECM (aggrecan, Collagen II) and pain (e.g., CGRP) markers, disc tissues with fixation and decalfication were first dewaxed, sectioned into 10 μm sections, and stained with primary antibodies followed by 24 hours incubation. After washing with PBS containing 0.1% Tween 20, the secondary antibodies were added and incubated for 2 hours. Finally, the nucleus was stained with DAPI for 15 minutes. Sections were then examined under a fluorescent or colorimetric microscope with a Zeiss 880 confocal microscope and Olympus microscope, respectively. ImageJ was used for quantification in an automatic manner.

## Cc1sc2c(c1C)C(c1ccc(Cl)cc1)=N[C@@H](CC(=O)OC(C)(C)C)c1nnc(C)n1-2 [BETi, JQ1]
[1]
  inflammatory responses (pro- and anti-inflammatory gene expression): significantly lowered the inflammatory responses
[2]
  IL-1β expression (positive area, immunostaining): did not induce a significant reduction
  MMP-13 levels (immunostaining): did not suppress
[2]; compared to injury alone
  CGRP signals (pain marker, positive area ratio): considerably less reduction
[2]; implanted or injected on day of nucleotomy
  disc integrity / healthy disc tissue (H&E staining, MRI index): slightly improved the restoration of the disc structure
[2]; result in words
  up-regulation of Collagen II and aggrecan: did not result in noticeable up-regulation
